“Also recorded” adds a separate entry of the source. Read-outs that look alike come from different tables or passages of the source.
Key:
Format in all cases: binding
[1] = tested on: gRNA of HCoV-OC43; conditions: for target (spectral count, OC43 Probe I RNP capture) / background (spectral count, no-probe control): type n_48_v: 48 hours post-infection; for target (spectral count, OC43 Probe I RNP capture): infected cells, unweighted spectral count; for background (spectral count, no-probe control): no-probe control on infected cells; for target (spectral count) / background (spectral count): type g_36_m, 36 hpi, Probe I; for target (spectral count): HCoV-OC43-infected HCT-8 cells; for background (spectral count): uninfected-probe control
[2] = tested on: HCoV-OC43 gRNA and sgRNA; conditions: for target (unweighted spectral count): OC43 Probe II, infected cells; for target (unweighted spectral count) / target (unweighted spectral count, OC43 Probe II capture): tested against no-probe control; for target (unweighted spectral count, OC43 Probe II) / background (unweighted spectral count, no-probe control): type n_48_v, 48 hpi; for target (unweighted spectral count, OC43 Probe II): OC43 Probe II capture on infected cells; for background (unweighted spectral count, no-probe control): no-probe control on infected cells; for target (spectral count) / background (spectral count): type s_36_m, Probe II; for target (spectral count): HCoV-OC43-infected HCT-8 cells; for background (spectral count): uninfected-probe control; for target (unweighted spectral count, OC43 Probe II capture): FDR<10%
[3] = tested on: SARS-CoV-2 gRNA; conditions: for target (unweighted spectral count of the protein in the RNP capture): LC-MS/MS, Probe I sample (first 199 lines of Table 2)
[4] = tested on: SARS-CoV-2 gRNA and sgRNAs; conditions: for target (unweighted spectral count in RNP capture): Probe II capture, LC-MS/MS LFQ; for background (unweighted spectral count in control): no-probe control pull-down, used as background for Probe II

Row | Substance | target (spectral count, OC43 Probe I RNP capture) [1] | background (spectral count, no-probe control) [1] | target (unweighted spectral count) ([2]; 24 hpi (type n_24_v)) | target (unweighted spectral count, OC43 Probe II) [2] | background (unweighted spectral count, no-probe control) [2] | target (spectral count) ([2]; 36 hpi) | background (spectral count) ([2]; 36 hpi) | target (unweighted spectral count of the protein in the RNP capture) [3] | target (unweighted spectral count in RNP capture) ([4]; […]) | background (unweighted spectral count in control) [4] | target (spectral count) [1] | background (spectral count) [1] | target (unweighted spectral count, OC43 Probe II capture) ([2]; 24 hpi, type n_24_v) | target (unweighted spectral count, OC43 Probe II capture) ([2]; 36 hpi, type n_36_v) | enrichment in SARS-CoV-2 Probe I RNP capture [3] | enrichment in SARS-CoV-2 Probe II RNP capture [4] | target (unweighted spectral count) ([2]; 12 hpi (type n_12_v)) | target (unweighted spectral count of the protein in the RNP capture experiment) ([4]; […], LC-MS/MS label-free quantification, probe pool not given) | back-ground (unweighted spectral count of the protein in the control experiment) ([4]; protein background of the control (e.g. no-probe) experiment, […])
1 | DHX9: host protein, UniProt Q08211 | 24 | 4 | 13 | 31 | 4 | 27 | 3 | 15 | 11 | 1 |  |  |  |  |  |  |  |  | 
2 | EIF4H: host protein, UniProt Q15056 | 9 | 1 |  | 9 | 1 | 8 | 1 | 25 | 31 | 1 | 8 | 1 | 5 | 8 | enriched; also recorded: found in the SARS-CoV-2 experiments | enriched; also recorded: found in the SARS-CoV-2 experiments |  |  | 
3 | ELAVL1: host protein, UniProt Q15717 | 50 | 2 | 17 | 36 | 2 | 40 | 7 | 77 | 74 | 1 | 38 | 6 |  | 40 | found in the SARS-CoV-2 experiments | found in the SARS-CoV-2 experiments | 9 |  | 
4 | FAM98A |  |  |  | 5 | 1 |  |  | 7 |  |  |  |  |  | 4 |  |  |  |  | 
5 | FXR1 |  |  |  | 9 | 1 |  |  | 9 | 47 | 1 |  |  |  | 5 |  |  |  |  | 
6 | G3BP1 |  |  |  |  |  |  |  | 55 | 54 | 1 |  |  | 5 | 8 |  |  | 5 |  | 
7 | HNRNPAB | 37 | 2 |  | 27 | 2 |  |  | 44 | 44 | 1 |  |  |  | 21 |  |  | 10 |  | 
8 | HNRNPU | 80 | 8 | 40 | 72 | 8 |  |  | 75 |  | 3 |  |  |  | 69 |  |  | 24 |  | 
9 | ILF2: host protein, UniProt Q12905 | 14 | 3 | 7 | 17 | 3 |  |  | 12 |  |  | 16 | 2 |  | 15 |  |  | 4 | 5 | 1
10 | MRPL28: host protein, UniProt Q13084 | 10 | 1 |  | 7 | 1 |  |  | 12 |  |  | 13 | 1 |  |  |  |  |  |  | 

— patent US20230407373A1 (priority 2020, published 2023)
